# Assay results reported in ChEMBL document CHEMBL4811278, “Discovery of novel modulators for the PPARα (peroxisome proliferator activated receptor α): Potential therapies for nonalcoholic fatty liver disease” (Bioorg Med Chem, 2021).
# Activity calls are given as the source filed them. The rule behind the calls is not given here.
# Legend:
# [1] = target: T1, Peroxisome proliferator-activated receptor alpha (Homo sapiens, UniProt Q07869); experiment: Agonist activity at Gal4-fused human PPARalpha co-expressed with RXRalpha in monkey CV1 cells assessed as PPRE transcriptional activation incubated for 45 hrs by luciferase reporter gene assay; assay type: cell-based, CV-1
# T1 sequence (Q07869 whole entry): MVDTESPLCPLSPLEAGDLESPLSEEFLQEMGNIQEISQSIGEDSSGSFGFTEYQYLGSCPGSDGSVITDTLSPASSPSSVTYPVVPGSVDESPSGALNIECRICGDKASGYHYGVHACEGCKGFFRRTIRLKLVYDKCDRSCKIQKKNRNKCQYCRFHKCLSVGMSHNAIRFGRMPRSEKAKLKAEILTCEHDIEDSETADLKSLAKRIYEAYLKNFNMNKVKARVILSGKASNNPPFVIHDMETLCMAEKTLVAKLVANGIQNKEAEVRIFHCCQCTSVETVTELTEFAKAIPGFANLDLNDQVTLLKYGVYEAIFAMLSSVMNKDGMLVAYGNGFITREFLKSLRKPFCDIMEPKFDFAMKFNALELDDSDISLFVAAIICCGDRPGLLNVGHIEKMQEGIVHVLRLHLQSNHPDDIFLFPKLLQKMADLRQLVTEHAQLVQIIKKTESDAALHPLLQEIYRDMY
# [2] = system: Mus musculus; experiment: Hypolipidemic activity in high fat diet-induced nonalcoholic steatohepatitis C57BL/6J mouse model assessed as reduction in lipid accumulation in liver at 3 mg/kg, po administered once daily for 1 week by Oil Red O staining based assay; assay type: functional, organism-based; settings: time 1.0 weeks
# [3] = target: T2, Peroxisome proliferator-activated receptor alpha (Mus musculus) (UniProt P23204); experiment: In vivo agonist activity at PPARalpha in high fat diet-induced nonalcoholic steatohepatitis C57BL/6J mouse model assessed as trans-repression of ApoC3 mRNA expression in liver administered at 3 mg/kg, po and measured after 24 hrs by quantitative real time PCR analysis; assay type: functional, organism-based
# T2 sequence (whole entry): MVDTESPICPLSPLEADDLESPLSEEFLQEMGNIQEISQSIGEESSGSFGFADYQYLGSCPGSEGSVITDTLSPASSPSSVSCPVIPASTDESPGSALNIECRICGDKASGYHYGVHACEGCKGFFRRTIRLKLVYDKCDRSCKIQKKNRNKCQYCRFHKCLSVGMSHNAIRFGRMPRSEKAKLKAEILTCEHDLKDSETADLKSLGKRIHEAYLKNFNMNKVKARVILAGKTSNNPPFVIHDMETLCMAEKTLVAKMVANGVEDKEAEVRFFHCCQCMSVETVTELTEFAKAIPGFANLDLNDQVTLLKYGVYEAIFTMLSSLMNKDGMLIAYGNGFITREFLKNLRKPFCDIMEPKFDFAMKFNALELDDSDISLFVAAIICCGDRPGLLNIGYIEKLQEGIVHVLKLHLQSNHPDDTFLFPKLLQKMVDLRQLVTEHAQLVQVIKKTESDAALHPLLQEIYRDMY
# [4] = target: T2, Peroxisome proliferator-activated receptor alpha (Mus musculus); experiment: In vivo agonist activity at PPARalpha in high fat diet-induced nonalcoholic steatohepatitis C57BL/6J mouse model assessed as increase in Cyp4a3 mRNA expression in liver administered at 3 mg/kg, po and measured after 24 hrs by quantitative real time PCR analysis; assay type: functional, organism-based
# [5] = system: Mus musculus; experiment: Hypolipidemic activity in high fat diet-induced nonalcoholic steatohepatitis C57BL/6J mouse model assessed as reduction in plasma free fatty acid level at 3 mg/kg, po administered once daily via gavage for 7 days; assay type: functional; settings: 168 h, time 7 day
# [6] = Toxicity in C57BL/6J mouse assessed as reduction in body weight measured after 24 hrs; settings: in vivo
# [7] = system: Mus musculus; experiment: Hypolipidemic activity in high fat diet-induced nonalcoholic steatohepatitis PPARalpha knockout C57BL/6J mouse model assessed as reduction in plasma triglyceride levels at 3 mg/kg, po measured after 72 hrs; assay type: functional, organism-based
# [8] = system: Mus musculus; experiment: Hypolipidemic activity in wild type high fat diet-induced nonalcoholic steatohepatitis C57BL/6J mouse model assessed as reduction in plasma triglyceride levels at 3 mg/kg, po measured after 72 hrs; assay type: functional, organism-based
# [9] = system: Mus musculus; experiment: Hypolipidemic activity in high fat diet-induced nonalcoholic steatohepatitis C57BL/6J mouse model assessed as reduction in hepatocellular vacuolation at 3 mg/kg, po administered once daily for 1 week by Oil Red O staining based assay; assay type: functional, organism-based; settings: time 1.0 weeks
# [10] = system: Mus musculus; experiment: Hypolipidemic activity in high fat diet-induced nonalcoholic steatohepatitis C57BL/6J mouse model assessed as reduction in fat droplets in liver at 3 mg/kg, po administered once daily for 1 week by Oil Red O staining based assay; assay type: functional, organism-based; settings: time 1.0 weeks
structure (smiles),measurement,setting,value
COc1ccc(Cn2c(CCCc3ccc(OC(C)(C)C(=O)O)cc3)nn(Cc3ccc(C)cc3)c2=O)cc1,EC50,[1],870 pM
same,Activity,[2],Active
same,Activity,[3],Active
same,Activity,[4],Active
same,inhibition in vivo at 3 mg/kg,[5],≥ 60%
same,Activity,[6],Non-Toxic
same,Activity,[7],inactive
same,Activity,[8],Active
same,Activity,[9],Active
same,Activity,[10],Active
